According to ChEMBL document CHEMBL1136307, “Novel chromene derivatives as TNF-alpha inhibitors” (Bioorg Med Chem Lett, 2003):

Test: Inhibitory activity against TNF-alpha production in human peripheral blood mononuclear cells(PBMC) using an ELISA assay
Format: functional

SMILES | IC50 [µM]
COc1ccc2c(c1)OC(c1cc(OC)c(OC)c(OC)c1)C(C=O)=C2 (centres undefined) | 0.6
COc1ccc2c(c1)OC(c1cc(OC)c(OC)c(OC)c1)C(C(=O)NC(C)(C)C)=C2 (centres undefined) | > 50
CCCC(=O)C1=Cc2ccc(OC)cc2OC1c1cc(OC)c(OC)c(OC)c1 (centres undefined) | 4.7
COc1ccc2c(c1)OC(c1cc(OC)c(OC)c(OC)c1)C(C#N)=C2 (centres undefined) | 0.6
COc1ccc2c(c1)OC(c1cc(OC)c(OC)c(OC)c1)C(/C=N/O)=C2 (centres undefined) | 4.1
CNC(=O)C1=Cc2ccc(OC)cc2OC1c1cc(OC)c(OC)c(OC)c1 (centres undefined) | 8.1
CCCCNC(=O)C1=Cc2ccc(OC)cc2OC1c1cc(OC)c(OC)c(OC)c1 (centres undefined) | 31.3
COc1ccc2c(c1)OC(c1cc(OC)c(OC)c(OC)c1)C(C(=O)Nc1ccccc1)=C2 (centres undefined) | > 50
CCNC(=O)C1=Cc2ccc(OC)cc2OC1c1cc(OC)c(OC)c(OC)c1 (centres undefined) | 17.9
COc1ccc2c(c1)OC(c1cc(OC)c(OC)c(OC)c1)C(C(=O)OCCc1ccccc1)=C2 (centres undefined) | > 50
COc1ccc2c(c1)OC(c1cc(OC)c(OC)c(OC)c1)C(CO)=C2 (centres undefined) | 2.4
COc1ccc2c(c1)OC(c1cc(OC)c(OC)c(OC)c1)C=C2 (centres undefined) | 11.6
COc1ccc2c(c1)OC(c1cc(OC)c(OC)c(OC)c1)C(C(=O)N1CCCCC1)=C2 (centres undefined) | 48
COc1ccc2c(c1)OC(c1cc(OC)c(OC)c(OC)c1)C(C(=O)N(C)C)=C2 (centres undefined) | > 50
CCOCC1=Cc2ccc(OC)cc2OC1c1cc(OC)c(OC)c(OC)c1 (centres undefined) | 1.1
COc1ccc2c(c1)OC(c1cc(OC)c(OC)c(OC)c1)C(C(=O)N(C)OC)=C2 (centres undefined) | 31.1

Now from value to compound:

IC50 [µM] | SMILES
0.1 | COc1ccc2c(c1)OC(c1cc(OC)c(OC)c(OC)c1)C(C(C)=O)=C2 (centres undefined)
12 | COc1ccc2c(c1)OC(c1cc(OC)c(OC)c(OC)c1)C(C(=O)OC(C)C)=C2 (centres undefined)
13 | COc1ccc2c(c1)OC(c1cc(OC)c(OC)c(OC)c1)C(C(=O)OC(C)(C)C)=C2 (centres undefined)
0.6 | COc1ccc2c(c1)OC(c1cc(OC)c(OC)c(OC)c1)C(C(N)=O)=C2 (centres undefined)
7 | CCOC(=O)C1=Cc2ccc(OC)cc2OC1c1cc(OC)c(OC)c(OC)c1 (centres undefined)
> 50 | COc1ccc2c(c1)OC(c1cc(OC)c(OC)c(OC)c1)C(C(=O)O)=C2 (centres undefined)
41.6 | COc1ccc2c(c1)OC(c1cc(OC)c(OC)c(OC)c1)C(C(=O)NC(C)C)=C2 (centres undefined)
2 | COC(=O)C1=Cc2ccc(OC)cc2OC1c1cc(OC)c(OC)c(OC)c1 (centres undefined)
